≈ marks a conversion by molar mass, not a printed value. Where no end group is shown, it is not given here.
How the values were obtained:
[1] = test system: ASEC strains (drug-resistant E. coli, ASEC 1 to 19); assay: MIC, microdilution, summary over clinical isolates; format: cell-based; conditions: Escherichia coli; cefotaxime and ceftazidime: 'mostly showed no activity'
Experimental: (§1) Bacterial cells were cultured at 37°C in the appropriate culture media with shaking (180 rpm). Luria-Bertani broth (LB) (244620; BD Difco) was used for E. coli ATCC 25922, ASEC strains, and B. subtilis KCTC 2217. Nutrient broth (NB) (234000; BD Difco) was used for P. aeruginosa ATCC 27853, S. Typhimurium KCTC 1926, and A. baumannii KCTC 2508. Tryptic soy broth (TSB) (211825; BD Difco) was used for S. aureus ATCC 25923. Finally, brain heart infusion (BHI) (237500; BD Difco) was used for L. monocytogenes KCTC 3710. The antimicrobial activity of each peptide was determined using microdilution assays. To this end, 2-fold serial dilution series of each peptide (from 1 to 64 μM) were added to duplicate media with 10 mM sodium phosphate buffer (pH 7.4). Fifty microliters of the peptide and antibiotic solution was added to each well of a 96-well plate (32096, surface nontreatment; SPL Life Sciences). Then, 50 μL of 2 × 10^5 CFU mL^−1 of bacteria was added to each well, and the samples were incubated for 18 to 24 h without shaking at 37°C.

[2] = test system: ASEC 16 biofilm; conditions: crystal violet A595, 24 h, three independent experiments
Experimental: (§2) Crystal violet staining was performed to determine the degree of biofilm formation by the E. coli 25922, S. aureus 25923, and ASEC strains. E. coli 25922 and S. aureus 25923 were cultured overnight in LB and TSB media with aeration at 180 rpm, respectively. Bacterial suspensions with 0.2% glucose (5 × 10^5 CFU mL^−1) were added to a 96-well plate (30096, surface treatment; SPL Life Sciences) and incubated for 24 h at 37°C. The supernatant was removed and fixed with 100% methanol. Next, 100 μL of crystal violet was added to the plate and incubated to dye the cells for 1 h, followed by rinsing the cells three times with distilled water (dH2O). After the crystal violet was dissolved with 95% ethanol, the mass of biofilm formation at 595 nm was measured using a Versa Max microplate reader (Molecular Devices). The inhibitory effect of PN5 against biofilm formed by E. coli 25922, S. aureus 25923, and three MDR E. coli strains (ASEC 2, 16, and 18) were determined. These cells were cultured overnight in LB and TSB media. Bacterial suspensions (5 × 10^5 CFU mL^−1) containing 0.2% glucose were added to 96-well plates and PN5 was serially diluted to a final concentration of 32 μM. The minimal biofilm inhibitory concentration (MBIC) was determined in three independent experiments. The percentage of biofilm formation was measured using the equation (A595 of treated biofilm/A595 of untreated biofilm) × 100. Similarly, the MDR ASEC 1 to 19 strains were cultured overnight in LB medium and seeded into 96-well plates with medium containing 0.2% glucose at 5 × 10^5 CFU mL^−1 of the bacterial suspension. Biofilm staining was performed as described above. SYTO 9 (6 μM) fluorescence in LIVE/DEAD BacLight was used to visualize the degree of biofilm formation. […] After 24 h, the culture supernatant of the peptide and bacteria was discarded, and the pellet was fixed with 100% methanol. A fluorescence mixture of SYTO 9 and propidium iodide was then added to each well, and the fluorescence was evaluated with an EVOS FL color imaging system (Thermo Fisher Scientific) with a 4× objective ([22]).

[3] = test system: ASEC 18 biofilm; conditions: crystal violet A595, 24 h, three independent experiments
Experimental: as §2

[4] = test system: ASEC 2 biofilm; conditions: for biofilm formation visualized with SYTO 9: antibiotics at 32 μM, 24 h, SYTO 9 staining (Fig. 3F); for MBIC50: crystal violet A595, 24 h, three independent experiments
Experimental: as §2

[5] = test system: MDR E. coli ASEC 15; parameters: method as in Asan hospital; key to susceptibility category: S: susceptible; R: resistant; I: intermediate; conditions: ref Asan hospital, cited from earlier work; for MIC: ASEC 15 (AmpC), resistance information of clinical isolate; for susceptibility category: ASEC 15
[6] = test system: MDR E. coli ASEC 16; parameters: method as in Asan hospital; key to susceptibility category: S: susceptible; R: resistant; I: intermediate; conditions: ref Asan hospital, cited from earlier work; for MIC: ASEC 16 (AmpC), resistance information of clinical isolate; for susceptibility category: ASEC 16
[7] = test system: MDR E. coli ASEC 18; parameters: method as in Asan hospital; key to susceptibility category: S: susceptible; R: resistant; I: intermediate; conditions: ref Asan hospital, cited from earlier work; for MIC: ASEC 18 (AmpC), resistance information of clinical isolate; for susceptibility category: ASEC 18
[8] = test system: S. aureus ATCC 25923; format: cell-based, Staphylococcus aureus; conditions: microdilution, TSB, 18 to 24 h, 37°C, three independent experiments
Experimental: as §1

[9] = test system: B. subtilis KCTC 2217; format: cell-based, Bacillus subtilis; conditions: microdilution, LB, 18 to 24 h, 37°C, three independent experiments
Experimental: as §1

[10] = test system: RAW 264.7 cells; assay: IncuCyte Cytotox green time-dependent cytotoxicity; format: cell-based, mouse; conditions: 200 μM, 24 h
Experimental: An IncuCyte cytotoxicity assay (Essen BioScience, Inc., Ann Arbor, MI, USA) was performed to evaluate time-dependent cytotoxicity. RAW 264.7 cells (2 × 10^5 cells well^−1) were seeded into 96-well culture plates and then treated with peptides and IncuCyte Cytotox green reagent (Essen BioScience, Inc.). Up to 200 μM PN5 and 25 μM melittin were used to treat RAW 264.7 cells, with the concentrations serially diluted by half. […] The cells were stained with IncuCyte Cytotox green reagent. The viability was measured using IncuCyte software (Essen BioScience, Inc.) ([56]).

| Compound | MIC [1] | MBIC50 [2] | MBIC50 [3] | biofilm formation visualized with SYTO 9 [4] | MBIC50 [4] | MIC [5] | susceptibility category [5] | MIC [6] | susceptibility category [6] | MIC [7] | susceptibility category [7] | MIC [8] | MIC [9] | cytotoxicity, Cytotox green fluorescence [10] |
| --- | --- | --- | --- | --- | --- | --- | --- | --- | --- | --- | --- | --- | --- | --- |
| CO/N=C(\C(=O)N[C@@H]1C(=O)N2C(C(=O)O)=C(COC(C)=O)CS[C@H]12)c1csc(N)n1 [Cefotaxime] | > 32 µM | 128 (58.3) μM | >128 (>58.3) μM | did not inhibit biofilm formation | >128 (>58.3) μM | > 32 µg/mL | R | > 32 µg/mL | R | 32 µg/mL (≈ 70.3 µM) | R |  |  |  |
| CC(C)(O/N=C(\C(=O)N[C@@H]1C(=O)N2C(C(=O)[O-])=C(C[n+]3ccccc3)CS[C@H]12)c1csc(N)n1)C(=O)O [Ceftazidime] | > 32 µM | >128 (>69.95) μM | >128 (>69.95) μM | did not inhibit biofilm formation | >128 (>69.95) μM | > 16 µg/mL | R | > 16 µg/mL | R | > 16 µg/mL | R |  |  |  |
| C[C@@H](O)[C@H]1C(=O)N2C(C(=O)O)=C(S[C@@H]3CN[C@H](C(=O)N(C)C)C3)[C@H](C)[C@H]12 [Meropenem] |  | <2 (<0.77) μM | <2 (<0.77) μM | did not inhibit biofilm formation | 64 (24.54) μM | <= 1 μg mL-1 | S | <= 1 μg mL-1 | S | <= 1 μg mL-1 | S |  |  |  |
| FKFLARTGKFL-NH2 [PN5] |  | 16 (21.22) μM | 16 (21.22) μM |  | 8 (10.61) μM |  |  |  |  |  |  | 2 µM | 4 µM | no toxicity |

— article PMC9603901, “Therapeutic Potential of Antimicrobial Peptide PN5 against Multidrug-Resistant E. coli and Anti-Inflammatory Activity in a Septic Mouse Model” (Microbiology Spectrum, 2022)
